Test results reported in patent US20260138949A1, “NOVEL COMPOUND AS PHOSPHOLIPASE D INHIBITOR AND USE THEREOF” (UIF (UNIVERSITY INDUSTRY FOUNDATION), YONSEI UNIVERSITY, priority 2022, published 2026).

Test system: phospholipase D1
Assay: PLD activity in HCT116 cells ([3H]phosphatidylbutanol, TLC)
Assay type: cell-based, human
Details: compound 10 μM, cells without the compound = 100%
Description: To evaluate the inhibitory effect of the compounds according to the present invention on phospholipase D1 activity, experiments were conducted as follows.
For the analysis of PLD activity in cells, human colon cancer cell line (HCT116) was cultured in a 6-well plate at 37° C. for 24 hours, washed twice with phosphate-buffered saline (PBS), and then replaced with medium containing [^3H]myristate and cultured for 24 hours. After the culture, the cells were washed three times with PBS, treated with 1-butanol, and the drug was added to a final concentration of 10 μM. The cells were trypsinized and suspended, and the amount of [^3H]phosphatidylbutanol produced in the cell suspension was measured and evaluated for PLD activity using thin layer chromatography (TLC), and the results are shown in Table 1 below.
The Remaining activity % at 10 μM in Table 1 is calculated by setting the amount of [^3H]phosphatidylbutanol produced in cells without the compound as 100% and calculating the amount of [^3H]phosphatidylbutanol produced in cells treated with the compound as a percentage. Therefore, the lower the value of Remaining activity %, the higher the PLD inhibitory activity.

Structure (SMILES) | Remaining activity % at 10 μM | Remaining activity % at 10 μM (10 µM) [%]
O=C(Nc1ccc(Cl)c([N+](=O)[O-])c1)c1c[nH]c2ccccc12 [Example 1-1, N-(4-chloro-3-nitrophenyl)-1H-indole-3-carboxamide] | 86.43% | –
O=C(Nc1ccc(Br)cc1)c1c[nH]c2ccccc12 [Example 1-2, N-(4-bromophenyl)-1H-indole-3-carboxamide] | 85.52% | –
COc1ccc(NC(=O)c2c[nH]c3ccccc23)cc1OC [Example 1-3, N-(3,4-dimethoxyphenyl)-1H-indole-3-carboxamide] | 62.73% | –
O=C(Nc1ccc(Cl)c(Cl)c1)c1c[nH]c2ccccc12 [Example 1-4, N-(3,4-dichlorophenyl)-1H-indole-3-carboxamide] | 56.19% | –
O=C(NCc1ccc(Cl)c(Cl)c1)c1c[nH]c2ccccc12 [Example 1-5, N-(3,4-dichlorobenzyl)-1H-indole-3-carboxamide] | 89.34% | –
O=C(NNc1ccc(Cl)c(Cl)c1)c1cc2ccccc2[nH]1 [Example 1-6, N′-(3,4-dichlorophenyl)-1H-indole-2-carbohydrazide] | – | 86.59
O=C(Cc1c[nH]c2ccccc12)Nc1ccccc1O [Example 1-7, N-(2-hydroxyphenyl)-2-(1H-indol-3-yl)acetamide] | 65.03% | –
O=C(Cc1c[nH]c2ccccc12)Nc1cccc(O)c1 [Example 1-8, N-(3-hydroxyphenyl)-2-(1H-indol-3-yl)acetamide] | 65.7% | –
COc1ccccc1NC(=O)Cc1c[nH]c2ccccc12 [Example 1-9, 2-(1H-indol-3-yl)-N-(2-methoxyphenyl)acetamide] | 80.82% | –
COc1cccc(NC(=O)Cc2c[nH]c3ccccc23)c1 [Example 1-10, 2-(1H-indol-3-yl)-N-(3-methoxyphenyl)acetamide] | 89.33% | –
COc1ccc(NC(=O)Cc2c[nH]c3ccccc23)cc1 [Example 1-11, 2-(1H-indol-3-yl)-N-(4-methoxyphenyl)acetamide] | not active | –
O=C(Cc1c[nH]c2ccccc12)Nc1ccccc1F [Example 1-12, N-(2-fluorophenyl)-2-(1H-indol-3-yl)acetamide] | not active | –
O=C(Cc1c[nH]c2ccccc12)Nc1cccc(F)c1 [Example 1-13, N-(3-fluorophenyl)-2-(1H-indol-3-yl)acetamide] | 30.28% | –
O=C(Cc1c[nH]c2ccccc12)Nc1ccc(F)cc1 [Example 1-14, N-(4-fluorophenyl)-2-(1H-indol-3-yl)acetamide] | not active | –
O=C(Cc1c[nH]c2ccccc12)Nc1ccccc1Br [Example 1-15, N-(2-bromophenyl)-2-(1H-indol-3-yl)acetamide] | 30.42% | –
O=C(Cc1c[nH]c2ccccc12)Nc1cccc(Br)c1 [Example 1-16, N-(3-bromophenyl)-2-(1H-indol-3-yl)acetamide] | 97.25% | –
O=C(Cc1c[nH]c2ccccc12)Nc1ccc(Br)cc1 [Example 1-17, N-(4-bromophenyl)-2-(1H-indol-3-yl)acetamide] | not active | –
O=C(Cc1c[nH]c2ccccc12)Nc1cc(F)cc(F)c1 [Example 1-18, N-(3,5-difluorophenyl)-2-(1H-indol-3-yl)acetamide] | 97.19% | –
O=C(Cc1c[nH]c2ccccc12)Nc1ccc(Cl)c([N+](=O)[O-])c1 [Example 1-19, N-(4-chloro-3-nitrophenyl)-2-(1H-indol-3-yl)acetamide] | not active | –
O=C(Cc1c[nH]c2ccccc12)Nc1ccc(Cl)c(Cl)c1 [Example 1-20, N-(3,4-dichlorophenyl)-2-(1H-indol-3-yl)acetamide] | not active | –
O=C(Cc1c[nH]c2ccccc12)Nc1ccc(Br)cn1 [Example 1-21, N-(5-bromopyridin-2-yl)-2-(1H-indol-3-yl)acetamide] | 46.59% | –
O=C(Cc1c[nH]c2ccccc12)Nc1ccc(F)cn1 [Example 1-22, N-(5-fluoropyridin-2-yl)-2-(1H-indol-3-yl)acetamide] | 66.5% | –
O=C(Cc1c[nH]c2ccccc12)Nc1ccccc1 [Example 1-23, 2-(1H-indol-3-yl)-N-phenylacetamide] | not active | –
O=C(Cc1c[nH]c2ccccc12)Nc1ccc(O)cc1 [Example 1-24, N-(4-hydroxyphenyl)-2-(1H-indol-3-yl)acetamide] | not active | –
COC(=O)c1ccc(NC(=O)Cc2c[nH]c3ccccc23)cc1 [Example 1-25, methyl 4-(2-(1H-indol-3-yl)acetamido)benzoate] | 66.73% | –

Structure (SMILES) | Remaining activity % at 10 μM | Remaining activity % at 10 μM (10 µM) [%]
O=C(Cc1c[nH]c2ccccc12)Nc1ccc(C(F)(F)F)cc1 [Example 1-26, 2-(1H-indol-3-yl)-N-(4-(trifluoromethyl)phenyl)acetamide] | 82.43% | –
CC(C)(C)c1ccc(NC(=O)Cc2c[nH]c3ccccc23)cc1 [Example 1-27, N-(4-tert-butylphenyl)-2-(1H-indol-3-yl)acetamide] | 81.22% | –
COc1ccc(NC(=O)Cc2c[nH]c3ccccc23)cc1OC [Example 1-28, N-(3,4-dimethoxyphenyl)-2-(1H-indol-3-yl)acetamide] | not active | –
CCOC(=O)c1ccc(NC(=O)Cc2c[nH]c3ccccc23)cc1 [Example 1-29, ethyl 4-(2-(1H-indol-3-yl)acetamido)benzoate] | 76.8% | –
O=C(Cc1c[nH]c2ccccc12)Nc1cccc([N+](=O)[O-])c1 [Example 1-30, 2-(1H-indol-3-yl)-N-(3-nitrophenyl)acetamide] | not active | –
C#Cc1ccc(NC(=O)Cc2c[nH]c3ccccc23)cc1 [Example 1-31, N-(4-ethynylphenyl)-2-(1H-indol-3-yl)acetamide] | not active | –
O=C(Cc1c[nH]c2ccccc12)Nc1cc(C(F)(F)F)cc(C(F)(F)F)c1 [Example 1-32, N-(3,5-bis(trifluoromethyl)phenyl)-2-(1H-indol-3-yl)acetamide] | 40.95% | –
CC(C)c1ccc(NC(=O)Cc2c[nH]c3ccccc23)cc1 [Example 1-33, 2-(1H-indol-3-yl)-N-(4-isopropylphenyl)acetamide] | 83.43% | –
CCC(C)c1ccc(NC(=O)Cc2c[nH]c3ccccc23)cc1 (stereo not shown) [Example 1-34, N-(4-sec-butylphenyl)-2-(1H-indol-3-yl)acetamide] | 66.07% | –
O=C(Cc1c[nH]c2ccccc12)NCc1ccccc1F [Example 1-35, N-(2-fluorobenzyl)-2-(1H-indol-3-yl)acetamide] | 83.61% | –
O=C(Cc1c[nH]c2ccccc12)NCc1cccc(F)c1 [Example 1-36, N-(3-fluorobenzyl)-2-(1H-indol-3-yl)acetamide] | 76.23% | –
O=C(Cc1c[nH]c2ccccc12)NCc1ccc(F)cc1 [Example 1-37, N-(4-fluorobenzyl)-2-(1H-indol-3-yl)acetamide] | not active | –
COC(=O)c1ccc(CNC(=O)Cc2c[nH]c3ccccc23)cc1 [Example 1-38, methyl 4-((2-(1H-indol-3-yl)acetamido)methyl)benzoate] | 99.81% | –
COc1ccc(CNC(=O)Cc2c[nH]c3ccccc23)cc1 [Example 1-39, 2-(1H-indol-3-yl)-N-(4-methoxybenzyl)acetamide] | 91.57% | –
Cc1cccc(CNC(=O)Cc2c[nH]c3ccccc23)c1 [Example 1-40, 2-(1H-indol-3-yl)-N-(3-methylbenzyl)acetamide] | 95.87% | –
CC(C)(C)c1ccc(CNC(=O)Cc2c[nH]c3ccccc23)cc1 [Example 1-41, N-(4-tert-butylbenzyl)-2-(1H-indol-3-yl)acetamide] | 59.99% | –
O=C(Cc1c[nH]c2ccccc12)NCc1cccc(C(F)(F)F)c1 [Example 1-42, 2-(1H-indol-3-yl)-N-(3-(trifluoromethyl)benzyl)acetamide] | 34.44% | –
O=C(Cc1c[nH]c2ccccc12)NCc1ccc(C(F)(F)F)cc1 [Example 1-43, 2-(1H-indol-3-yl)-N-(4-(trifluoromethyl)benzyl)acetamide] | 48.92% | –
COc1ccc(CNC(=O)Cc2c[nH]c3ccccc23)c(OC)c1 [Example 1-44, N-(2,4-dimethoxybenzyl)-2-(1H-indol-3-yl)acetamide] | 54.83% | –
COc1ccc(CNC(=O)Cc2c[nH]c3ccccc23)cc1OC [Example 1-45, N-(3,4-dimethoxybenzyl)-2-(1H-indol-3-yl)acetamide] | 41.05% | –
O=C(Cc1c[nH]c2ccccc12)NCc1ccc([N+](=O)[O-])cc1 [Example 1-46, 2-(1H-indol-3-yl)-N-(4-nitrobenzyl)acetamide] | 57.41% | –
O=C(Cc1c[nH]c2ccccc12)NCc1cccc(Cl)c1Cl [Example 1-47, N-(2,3-dichlorobenzyl)-2-(1H-indol-3-yl)acetamide] | 62.96% | –
O=C(Cc1c[nH]c2ccccc12)NCc1ccccc1Cl [Example 1-48, N-(2-chlorobenzyl)-2-(1H-indol-3-yl)acetamide] | 75.72% | –
O=C(Cc1c[nH]c2ccccc12)NCc1ccc(Cl)cc1 [Example 1-49, N-(4-chlorobenzyl)-2-(1H-indol-3-yl)acetamide] | 59.74% | –
